Results from patent US6656510B2, “Hyperforin derivatives, use thereof and formulations containing them” (Indena S.p.A., priority 1998, dated 2003).

Legend:
[1] = after only a few weeks; WO 97/13489; cited from earlier work
[2] = test system: escape deficit (antidepressive effect); test: escape deficit development test; type: in vivo; conditions: rats, 2 week pre-treatment, escapes out of 30 stimuli
Method: In the escape deficit development test, rats are restrained and subjected to mild, short, unavoidable electric shocks for 50 minutes. This is known as the pre-test. 24 hours later, the rats are tested for their ability to avoid the same stimuli on their tails, in a situation where […]. A rat on the average makes 26 escapes out of 30 stimuli (naive controls), whereas a rat subjected to pre-test only makes 1 to 3 escapes (ED controls). […] The compounds of the invention, when administered to rats one hour before their exposure to the unavoidable stress, cause an increase in reactivity to the escape test. This increase in reactivity is enhanced when pre-treatment is effected for 1 to 2 weeks.

Structure (SMILES)	hyperforin content of a water-alcohol extract of St. Johns wort [1]	Number of Escapes ([2]; 6.25 mg/Kg)	Number of Escapes ([2]; 12.5 mg/Kg)	Number of Escapes ([2]; 25.0 mg/Kg)
CC(C)=CCC[C@]1(C)[C@@H](CC=C(C)C)C[C@@]2(CC=C(C)C)C(=O)[C@]1(C(=O)C(C)C)C(=O)C(CC=C(C)C)=C2O [hyperforin]	falls almost to zero			
CC(=O)OC1=C(CC=C(C)C)C(=O)[C@]2(C(=O)C(C)C)C(=O)[C@]1(CC=C(C)C)C[C@H](CC=C(C)C)[C@@]2(C)CCC=C(C)C [Hyperforin acetate]		12.6 ± 2.8	17.3 ± 1.9	21.2 ± 1.3
